Source: patent publication US9586951B2 (FUJIFILM Corporation, priority 2013, dated 2017)

How the values were obtained:
ATM = target: T1, ATM (Homo sapiens, UniProt Q13315); assay: ATM inhibition test (phosphorylation of Chk2 generated by ionizing radiation, AlphaScreen SureFire); format: cell-based; settings: phosphorylated Chk2 in NCI-H460 cells, ionizing radiation 8Gy, 1 hour after test compound treatment; read-out: ATM inhibitory activity
T1 construct: detecting phosphorylation of Chk2 in a human non-small cell lung cancer cell line NCI-H460 (ATCC company); host or cells: NCI-H460 human non-small cell lung cancer cells
T1 sequence (Q13315 whole entry): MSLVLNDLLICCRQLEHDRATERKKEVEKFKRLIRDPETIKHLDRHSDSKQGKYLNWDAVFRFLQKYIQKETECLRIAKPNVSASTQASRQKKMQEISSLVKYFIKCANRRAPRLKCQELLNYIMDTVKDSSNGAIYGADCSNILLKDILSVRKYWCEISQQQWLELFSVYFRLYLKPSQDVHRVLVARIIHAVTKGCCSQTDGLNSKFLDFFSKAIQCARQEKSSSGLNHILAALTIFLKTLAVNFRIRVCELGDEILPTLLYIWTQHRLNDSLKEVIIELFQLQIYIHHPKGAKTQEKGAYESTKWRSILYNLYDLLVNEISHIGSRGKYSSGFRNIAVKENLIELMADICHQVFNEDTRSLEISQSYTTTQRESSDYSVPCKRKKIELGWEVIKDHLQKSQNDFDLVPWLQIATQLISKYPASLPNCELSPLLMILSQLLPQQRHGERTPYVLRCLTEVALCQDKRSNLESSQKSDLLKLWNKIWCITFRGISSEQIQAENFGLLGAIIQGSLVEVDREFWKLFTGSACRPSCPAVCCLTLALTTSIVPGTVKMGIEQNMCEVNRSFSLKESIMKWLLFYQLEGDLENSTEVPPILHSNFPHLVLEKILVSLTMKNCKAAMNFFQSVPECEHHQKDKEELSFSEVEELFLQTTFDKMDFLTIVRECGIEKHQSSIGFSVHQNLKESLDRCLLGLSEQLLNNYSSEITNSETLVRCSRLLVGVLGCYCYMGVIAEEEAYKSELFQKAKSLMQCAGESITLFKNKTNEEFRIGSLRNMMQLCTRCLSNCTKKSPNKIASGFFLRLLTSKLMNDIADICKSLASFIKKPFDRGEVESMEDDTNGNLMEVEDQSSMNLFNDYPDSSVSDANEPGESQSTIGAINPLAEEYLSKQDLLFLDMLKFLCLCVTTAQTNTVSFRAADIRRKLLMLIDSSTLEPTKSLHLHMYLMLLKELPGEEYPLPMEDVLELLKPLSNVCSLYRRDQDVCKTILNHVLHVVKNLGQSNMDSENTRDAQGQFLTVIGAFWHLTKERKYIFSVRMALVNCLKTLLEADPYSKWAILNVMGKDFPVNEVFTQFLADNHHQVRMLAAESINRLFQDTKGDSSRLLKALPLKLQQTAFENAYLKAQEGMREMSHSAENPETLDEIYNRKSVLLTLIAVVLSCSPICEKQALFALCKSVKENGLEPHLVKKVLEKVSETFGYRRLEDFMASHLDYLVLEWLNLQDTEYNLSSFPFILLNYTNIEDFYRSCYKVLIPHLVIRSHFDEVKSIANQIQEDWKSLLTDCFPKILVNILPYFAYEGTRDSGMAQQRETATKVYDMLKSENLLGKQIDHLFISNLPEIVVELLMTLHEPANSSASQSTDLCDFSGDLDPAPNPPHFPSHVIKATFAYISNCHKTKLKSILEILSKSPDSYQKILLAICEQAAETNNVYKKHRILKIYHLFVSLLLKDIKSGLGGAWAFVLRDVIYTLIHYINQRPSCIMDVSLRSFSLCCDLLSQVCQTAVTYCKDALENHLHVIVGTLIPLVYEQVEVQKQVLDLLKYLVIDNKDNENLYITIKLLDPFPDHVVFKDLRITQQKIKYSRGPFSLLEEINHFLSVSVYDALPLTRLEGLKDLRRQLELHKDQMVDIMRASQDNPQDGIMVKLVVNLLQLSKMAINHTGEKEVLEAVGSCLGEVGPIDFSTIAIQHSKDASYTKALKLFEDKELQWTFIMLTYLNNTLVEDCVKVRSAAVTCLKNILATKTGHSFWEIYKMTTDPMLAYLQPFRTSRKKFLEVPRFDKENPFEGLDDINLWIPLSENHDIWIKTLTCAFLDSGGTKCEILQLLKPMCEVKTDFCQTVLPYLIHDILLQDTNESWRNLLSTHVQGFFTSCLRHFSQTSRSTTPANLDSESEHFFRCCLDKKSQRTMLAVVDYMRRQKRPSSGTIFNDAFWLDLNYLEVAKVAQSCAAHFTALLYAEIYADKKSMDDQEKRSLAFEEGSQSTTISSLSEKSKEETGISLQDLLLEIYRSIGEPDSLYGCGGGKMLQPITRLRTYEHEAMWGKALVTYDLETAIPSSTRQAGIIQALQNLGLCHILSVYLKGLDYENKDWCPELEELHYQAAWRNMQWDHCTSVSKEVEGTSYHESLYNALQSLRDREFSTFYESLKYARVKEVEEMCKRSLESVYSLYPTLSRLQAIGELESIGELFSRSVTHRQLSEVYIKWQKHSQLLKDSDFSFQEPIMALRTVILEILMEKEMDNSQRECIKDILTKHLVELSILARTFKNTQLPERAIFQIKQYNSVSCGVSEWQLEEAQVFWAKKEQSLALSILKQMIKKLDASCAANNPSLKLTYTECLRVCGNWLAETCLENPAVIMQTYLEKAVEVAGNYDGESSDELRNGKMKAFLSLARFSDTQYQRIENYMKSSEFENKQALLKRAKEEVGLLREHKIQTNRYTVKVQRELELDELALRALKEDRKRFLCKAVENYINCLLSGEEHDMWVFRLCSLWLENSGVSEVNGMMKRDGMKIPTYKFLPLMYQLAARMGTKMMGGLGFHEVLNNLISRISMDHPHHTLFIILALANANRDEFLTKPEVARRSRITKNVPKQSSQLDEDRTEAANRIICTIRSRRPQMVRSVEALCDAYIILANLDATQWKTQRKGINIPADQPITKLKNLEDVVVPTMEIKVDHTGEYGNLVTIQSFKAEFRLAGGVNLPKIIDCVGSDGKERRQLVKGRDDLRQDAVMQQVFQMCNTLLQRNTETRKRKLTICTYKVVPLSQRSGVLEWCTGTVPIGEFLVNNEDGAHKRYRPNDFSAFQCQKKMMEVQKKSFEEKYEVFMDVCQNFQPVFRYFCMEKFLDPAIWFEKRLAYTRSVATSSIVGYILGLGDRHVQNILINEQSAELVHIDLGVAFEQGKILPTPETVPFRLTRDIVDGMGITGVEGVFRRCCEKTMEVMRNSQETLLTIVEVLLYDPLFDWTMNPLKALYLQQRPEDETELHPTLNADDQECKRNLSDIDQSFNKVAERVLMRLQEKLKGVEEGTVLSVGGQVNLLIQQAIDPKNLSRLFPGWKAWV
How it was run: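 Phosphorylated Chk2 read by AlphaScreen SureFire in human non-small cell lung cancer NCI-H460 cells, 1 hour after 8Gy ionizing radiation at 37° C. Compound added 1 hour before irradiation. Percent inhibition normalised between irradiated and non-irradiated drug-untreated signals.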

[1] = system: human non-small cell lung cancer cell line NCI-H460; assay: Cell proliferation inhibition test by sensitivity-enhancing to ionizing radiation (Cell Titer Glo); format: cell-based; settings: Homo sapiens, NCI-H460, 120 h, concentration in which SER became 2; NCI-H460 cells, ionizing radiation 2 Gy, cultured 120 hour
How it was run: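 Radiosensitisation measured as SER, a ratio of Cell Titer Glo luminescence in irradiated vs unirradiated plates relative to DMSO; SER2, the concentration yielding SER 2, came from sigmoidal regression. Compound (0.1% DMSO) was given 24 h post-seeding, 2 Gy applied 30 min later, then 120 hour culture at 37° C.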

Row | IC50 (ATM) [nM] | SMILES | SER2 (concentration at which the radiation sensitivity-enhancement ratio reaches 2) [1] [nM]
1 | < 100 | Cc1cnc(C(C)Nc2ccc3c(c2)Sc2cccc(-c4cc(N5CCOCC5)cc(=O)[nH]4)c2S3)cn1 (single isomer, unassigned) [Example 1-12-137-1, 6-(7-((1-(5-methylpyrazin-2-yl)ethyl)amino)thianthren-1-yl)-4-morpholinopyridin-2(1H)-one] | < 100
2 | < 100 | COc1ccnc(CNc2ccc3c(c2)Cc2cccc(-c4cc(N5CCOCC5)cc(=O)[nH]4)c2O3)c1 [Example 2-2-38, 6-(7-(((4-Methoxypyridin-2-yl)methyl)amino)-9H-xanthen-4-yl)-4-morpholino pyridin-2(1H)-one] | 100 to 500
3 | < 100 | O=c1cc(N2CCOCC2)cc(-c2cccc3c2Oc2ccc(NCc4cncc(-n5cccc5)c4)cc2S3)[nH]1 [Example 4-4-8, 6-(8-(((5-(1H-Pyrrol-1-yl)pyridin-3-yl)methyl)amino)phenoxathiin-4-yl)-4-morpholino pyridin-2(1H)-one] | 100 to 500
4 | < 100 | Cc1ccnc(C(C)Nc2ccc3c(c2)Sc2cccc(-c4cc(N5CCOCC5)cc(=O)[nH]4)c2S3)n1 (single isomer, unassigned) [Example 1-12-144-1, 6-(7-((1-(4-methylpyrimidin-2-yl)ethyl)amino)thianthren-1-yl)-4-morpholinopyridin-2(1H)-one] | < 100
5 | < 100 | COCc1cc(CNc2ccc3c(c2)Cc2cccc(-c4cc(N5CCOCC5)cc(=O)[nH]4)c2O3)ccn1 [Example 2-21-6, 6-(7-(((2-(Methoxymethyl)pyridin-4-yl)methyl)amino)-9H-xanthen-4-yl)-4-morpholino pyridin-2(1H)-one] | 500 to 2000
6 | < 100 | Cc1ccc(C(C)Nc2ccc3c(c2)Sc2cccc(-c4cc(N5CCOCC5)cc(=O)[nH]4)c2S3)nc1 (stereo not shown) [Example 1-12-113, 6-(7-((1-(5-Methylpyridin-2-yl)ethyl)amino)thianthren-1-yl)-4-morpholino pyridin-2(1H)-one] | 100 to 500
7 | < 100 | Cc1ccc(CNc2ccc3c(c2)Sc2cccc(-c4cc(N5CCOCC5)cc(=O)[nH]4)c2O3)cn1 [Example 4-8-23, 6-(8-(((6-Methylpyridin-3-yl)methyl)amino)phenoxathiin-4-yl)-4-morpholino pyridin-2(1H)-one] | 100 to 500
8 | < 100 | CNc1ncc(CNc2ccc3c(c2)Sc2cccc(-c4cc(N5CCOCC5)cc(=O)[nH]4)c2S3)cn1 [Example 1-12-46, 6-(7-(((2-(Methylamino)pyrimidin-5-yl)methyl)amino)thianthren-1-yl)-4-morpholino pyridin-2(1H)-one] | 100 to 500
9 | < 100 | O=c1cc(N2CCOCC2)cc(-c2cccc3c2Oc2ccc(NCc4cnc5ccccc5c4)cc2S3)[nH]1 [Example 4-4-15, 4-Morpholino-6-(8-((quinolin-3-ylmethyl)amino)phenoxathiin-4-yl) pyridin-2(1H)-one] | 100 to 500
10 | < 100 | Cc1cccc(C(C)Nc2ccc3c(c2)Sc2cccc(-c4cc(N5CCOCC5)cc(=O)[nH]4)c2S3)n1 (stereo not shown) [Example 1-12-30, 6-(7-((1-(6-Methylpyridin-2-yl)ethyl)amino)thianthren-1-yl)-4-morpholino pyridin-2 (1H)-one] | < 100
11 | < 100 | O=c1cc(N2CCOCC2)cc(-c2cccc3c2Oc2ccc(NCc4cc(C5CC5)ccn4)cc2C3)[nH]1 [Example 2-13-10, 6-(7-(((4-Cyclopropylpyridin-2-yl)methyl)amino)-9H-xanthen-4-yl)-4-morpholino pyridin-2(1H)-one] | 100 to 500
